Experimental data reported in article PMC5740067 (Scientific Reports, 2017).
“Also recorded” adds a separate entry of the source. Where two headings read alike, the source gives them in different places.

Columns and labels:
OccJ WT [1] = target: T1, OccJ WT (Agrobacterium tumefaciens, UniProt P0A4F8); assay: OccJ WT ligand binding, isothermal titration microcalorimetry; conditions: ITC, 20 °C
T1 construct: The mature PBP OccJ (256 aa without the signal peptide) expression plasmid was obtained by cloning the occJ gene lacking the first twenty residues; hexahistidine (C); made in house; host or cells: E. coli BL21
T1 sequence (P0A4F8 21-276): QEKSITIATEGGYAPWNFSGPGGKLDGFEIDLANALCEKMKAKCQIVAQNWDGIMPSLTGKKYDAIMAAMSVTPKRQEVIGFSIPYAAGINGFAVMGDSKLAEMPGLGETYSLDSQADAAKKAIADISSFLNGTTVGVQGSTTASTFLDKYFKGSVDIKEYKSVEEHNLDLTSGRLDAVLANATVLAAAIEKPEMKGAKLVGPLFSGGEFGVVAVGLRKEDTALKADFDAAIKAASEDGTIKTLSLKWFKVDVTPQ
Method: (§1) Isothermal titration microcalorimetry experiments were performed with an ITC200 isothermal titration calorimeter from MicroCal (GE Healthcare). The experiments were carried out at 20 °C. Protein concentration in the microcalorimeter cell (0.2 mL) varied from 20 to 150 µM. Nineteen injections of 2 µL of ligand solution (amino acids, opines and octopine derivatives) at concentration ranging from 240 µM to 1.5 mM were performed at intervals of 180 s while stirring at 500 rpm. The experimental data were fitted to theoretical titration curves with software supplied by MicroCal (ORIGIN®). This software uses the relationship between the heat generated by each injection and ΔH (enthalpy change in kcal/mol), Ka (the association binding constant in M^−1), n (the number of binding sites), total protein concentration and free and total ligand concentrations.

NocT WT [2] = target: T2, NocT WT (Agrobacterium fabrum, UniProt P35120); type: binding, Agrobacterium tumefaciens; conditions: ITC, 20 °C
T2 construct: Cloning of mature OccJ, NocT-G97S, OccJ-S91G, OccJ-N202D, LAO and LAO-Q122A; made in house
T2 sequence (P35120 26-283): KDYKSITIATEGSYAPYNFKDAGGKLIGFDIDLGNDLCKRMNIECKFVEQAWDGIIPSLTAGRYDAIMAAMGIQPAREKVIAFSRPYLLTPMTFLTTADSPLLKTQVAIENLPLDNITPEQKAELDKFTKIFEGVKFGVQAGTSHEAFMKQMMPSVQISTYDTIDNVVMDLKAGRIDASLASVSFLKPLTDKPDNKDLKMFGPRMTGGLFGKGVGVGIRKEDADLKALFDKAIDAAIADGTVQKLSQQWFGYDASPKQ
Method: as §1

NocT WT [3] = target: T2, NocT WT; type: binding, Agrobacterium tumefaciens; conditions: fluorescence titration; 20 °C; pH 8.0; octopine family members and analogues; read-out: Kd (F)
Method: (§2) Binding of ligands to OccJ, NocT, LAO and protein mutants was monitored by autofluorescence by exciting the protein at a wavelength of 295 nm and monitoring the quenching of fluorescence emission of tryptophans at 335 nm. All experiments were performed at 20 °C in 96 wells plates (1/2 Area Plate-96F, Perkin Elmer) using Tecan Infinite M1000 reader (Tecan), in 50 mM Tris-HCl pH 8.0, 150 mM NaCl buffer with a fixed amount of proteins (1 µM) and increasing concentrations of ligand. […] The data were analysed using Origin® 7 software and fitted to the equation f = ΔFluorescencemax * abs(x)/(K D + abs(x)).

LAO = target: LAO; parameters: method as in PMID 1400387; conditions: ref [20]; cited from earlier work
OccJ S91G [4] = target: T3, OccJ S91G (Agrobacterium tumefaciens, UniProt P0A4F8, S91G); assay: OccJ S91G ligand binding, fluorescence titration; conditions: intrinsic protein fluorescence titration
T3 construct: The mature LAO expression plasmid, LAO-Q122A, OccJ-S91G and OccJ-N202D were chemically synthesized; pET-28a); host or cells: E. coli BL21
T3 sequence (P0A4F8 21-276 S91G): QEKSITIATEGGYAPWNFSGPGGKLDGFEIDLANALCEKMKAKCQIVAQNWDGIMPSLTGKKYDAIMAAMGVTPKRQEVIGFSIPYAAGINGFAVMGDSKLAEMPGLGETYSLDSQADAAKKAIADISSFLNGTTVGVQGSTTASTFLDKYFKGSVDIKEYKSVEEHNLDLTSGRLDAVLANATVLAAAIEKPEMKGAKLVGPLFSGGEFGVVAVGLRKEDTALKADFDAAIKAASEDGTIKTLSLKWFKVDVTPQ
Method: as §2

LAO WT = target: T4, LAO WT (Salmonella typhimurium, UniProt P02911); assay: biochemical; type: binding, Salmonella enterica
T4 construct: The mature LAO expression plasmid, LAO-Q122A, OccJ-S91G and OccJ-N202D were chemically synthesized; pET-28a); host or cells: E. coli BL21
T4 sequence (P02911 23-260): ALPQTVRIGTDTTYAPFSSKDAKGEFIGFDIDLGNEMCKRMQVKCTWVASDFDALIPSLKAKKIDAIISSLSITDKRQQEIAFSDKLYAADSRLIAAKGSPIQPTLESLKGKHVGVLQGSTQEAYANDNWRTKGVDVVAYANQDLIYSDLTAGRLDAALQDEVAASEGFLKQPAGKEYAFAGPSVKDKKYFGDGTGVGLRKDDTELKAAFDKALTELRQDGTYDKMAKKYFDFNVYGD
Method: as §1

NocT WT [5] = target: T2, NocT WT; conditions: cited from earlier work; for Kd: fluorescence titration, octopine and nopaline, ref [6],[14], read-out: K D (F)
LAO Q122A = target: T5, LAO Q122A (Salmonella typhimurium, UniProt P02911, Q144A); assay: LAO Q122A ligand binding, ITC; parameters: species or system Salmonella enterica
T5 construct: The mature LAO expression plasmid, LAO-Q122A, OccJ-S91G and OccJ-N202D were chemically synthesized; pET-28a); host or cells: E. coli BL21
T5 sequence (P02911 23-260 Q144A): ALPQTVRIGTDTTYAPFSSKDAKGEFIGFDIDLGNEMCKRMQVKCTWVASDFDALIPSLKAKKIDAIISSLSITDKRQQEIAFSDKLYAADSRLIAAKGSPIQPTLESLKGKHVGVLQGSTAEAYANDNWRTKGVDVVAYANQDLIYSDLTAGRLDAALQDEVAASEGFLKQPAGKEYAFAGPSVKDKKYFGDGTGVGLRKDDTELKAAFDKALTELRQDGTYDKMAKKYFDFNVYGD
Method: as §1

OccJ N202D [6] = target: T6, OccJ N202D (Agrobacterium tumefaciens, UniProt P0A4F8, N202D); type: binding; conditions: ITC, 20 °C
T6 construct: The mature LAO expression plasmid, LAO-Q122A, OccJ-S91G and OccJ-N202D were chemically synthesized; pET-28a); host or cells: E. coli BL21
T6 sequence (P0A4F8 21-276 N202D): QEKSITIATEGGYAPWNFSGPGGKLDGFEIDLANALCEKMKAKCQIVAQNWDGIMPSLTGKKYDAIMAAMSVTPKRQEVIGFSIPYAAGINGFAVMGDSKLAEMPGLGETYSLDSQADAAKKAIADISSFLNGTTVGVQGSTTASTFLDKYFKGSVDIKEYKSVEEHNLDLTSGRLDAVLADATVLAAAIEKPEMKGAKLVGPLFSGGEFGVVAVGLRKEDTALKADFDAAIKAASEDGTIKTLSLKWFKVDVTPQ
Method: as §1

OccJ WT [7] = target: T1, OccJ WT; assay: biochemical; type: binding
Method: as §2

NocT G97S [8] = target: T7, NocT G97S (Agrobacterium fabrum, UniProt P35120, G97S); type: binding, Agrobacterium tumefaciens; conditions: intrinsic protein fluorescence titration, 20 °C, pH 8.0
T7 construct: Cloning of mature OccJ, NocT-G97S, OccJ-S91G, OccJ-N202D, LAO and LAO-Q122A; made in house; host or cells: E. coli BL21
T7 sequence (P35120 26-283 G97S): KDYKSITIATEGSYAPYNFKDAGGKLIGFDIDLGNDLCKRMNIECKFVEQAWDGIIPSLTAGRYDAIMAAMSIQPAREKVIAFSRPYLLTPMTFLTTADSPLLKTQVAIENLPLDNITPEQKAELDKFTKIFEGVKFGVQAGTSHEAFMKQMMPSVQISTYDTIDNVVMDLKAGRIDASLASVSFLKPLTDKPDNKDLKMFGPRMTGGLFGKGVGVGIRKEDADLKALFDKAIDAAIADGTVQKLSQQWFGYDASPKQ

OccJ N202D [9] = target: T6, OccJ N202D; type: binding; conditions: intrinsic protein fluorescence titration; 20 °C; pH 8.0; read-out: K D (F)
NocT WT [10] = target: T2, NocT WT; conditions: ITC; octopine; ref [6],[14]; read-out: K D (ITC) (converted); cited from earlier work
NocT G97S [11] = type: binding, Agrobacterium tumefaciens
OccJ S91G [12] = target: T3, OccJ S91G; type: binding; conditions: ITC, 20 °C
Method: as §1

NocT G97S [13] = target: T7, NocT G97S; type: binding, Agrobacterium tumefaciens; conditions: ITC, 20 °C
Method: as §1

[14] = intrinsic protein fluorescence titration, 20 °C, 50 mM Tris-HCl pH 8.0, 150 mM NaCl, 1 µM protein, read-out: K D (F)

Compound: homo-octopine
- Enthalpy (ΔH) (OccJ WT [1]): -7.611 kcal/mol
- Entropic contribution (-TΔS) (OccJ WT [1]): -0.806 kcal/mol
- Entropy (ΔS) (OccJ WT [1]): 2.75 cal/mol/deg
- Free enthalpy (ΔG) (OccJ WT [1]): -8.417 kcal/mol
- Enthalpy (ΔH) (NocT WT [2]): -3.832 kcal/mol
- Entropic contribution (-TΔS) (NocT WT [2]): -2.222 kcal/mol
- Entropy (ΔS) (NocT WT [2]): 7.58 cal/mol/deg
- Free enthalpy (ΔG) (NocT WT [2]): -6.054 kcal/mol

Compound: NCCC[C@H](NCC(=O)O)C(=O)O [noroctopinic acid]
- Enthalpy (ΔH) (OccJ WT [1]): -7.202 kcal/mol
- Entropic contribution (-TΔS) (OccJ WT [1]): -1.934 kcal/mol
- Entropy (ΔS) (OccJ WT [1]): 6.60 cal/mol/deg
- Free enthalpy (ΔG) (OccJ WT [1]): -9.136 kcal/mol
- Kd (OccJ WT [1]): 0.15 ± 0.01 µM
- Kd (NocT WT [3]): 19.3 ± 1.37 µM
- Enthalpy (ΔH) (NocT WT [2]): 0.62 kcal/mol
- Entropic contribution (-TΔS) (NocT WT [2]): -6.83 kcal/mol
- Entropy (ΔS) (NocT WT [2]): 23.3 cal/mol/deg
- Free enthalpy (ΔG) (NocT WT [2]): -6.21 kcal/mol
- Kd (NocT WT [2]): 23 ± 5 µM

Compound: N=C(N)NCCC[C@H](N)C(=O)O [L-arginine]
- Enthalpy (ΔH) (OccJ WT [1]): -4.208 kcal/mol
- Entropic contribution (-TΔS) (OccJ WT [1]): -1.755 kcal/mol
- Entropy (ΔS) (OccJ WT [1]): 5.99 cal/mol/deg
- Free enthalpy (ΔG) (OccJ WT [1]): -5.964 kcal/mol
- Kd (OccJ WT [1]): 35.7 µM
- previous reported affinity (LAO): nanomolar range
- K D (F) (OccJ S91G [4]; 20 °C, pH 8.0): can no longer bind
- Kd (LAO WT): 0.024 ± 0.002 µM
- Enthalpy (ΔH) (LAO WT; ITC, 20 °C): -10.91 kcal/mol
- Entropic contribution (-TΔS) (LAO WT; ITC, 20 °C): 0.703 kcal/mol
- Entropy (ΔS) (LAO WT; ITC, 20 °C): -2.4 cal/mol/deg
- Free enthalpy (ΔG) (LAO WT; ITC, 20 °C): -10.207 kcal/mol
- K D, amino acids (NocT WT [5]; F/ITC, amino acids, ref [6]): does not interact
- Kd (LAO Q122A): 0.12 ± 0.01 µM
- fold lower affinity of LAO-Q122A compared with WT (LAO Q122A; ITC): 5 fold
- Enthalpy (ΔH) (LAO Q122A; ITC, 20 °C): -6.853 kcal/mol
- Entropic contribution (-TΔS) (LAO Q122A; ITC, 20 °C): -2.433 kcal/mol
- Entropy (ΔS) (LAO Q122A; ITC, 20 °C): 8.3 cal/mol/deg
- Free enthalpy (ΔG) (LAO Q122A; ITC, 20 °C): -9.286 kcal/mol
- Enthalpy (ΔH) (OccJ N202D [6]): -0.632 kcal/mol
- Entropic contribution (-TΔS) (OccJ N202D [6]): -5.696 kcal/mol
- Entropy (ΔS) (OccJ N202D [6]): 19.3 cal/mol/deg
- Free enthalpy (ΔG) (OccJ N202D [6]): -6.328 kcal/mol
- Kd (OccJ WT [7]): 7.2 ± 1 µM

Compound: N=C(N)NCCCC[C@H](NCC(=O)O)C(=O)O [homo-noroctopine]
- Enthalpy (ΔH) (OccJ WT [1]): -4.115 kcal/mol
- Entropic contribution (-TΔS) (OccJ WT [1]): -2.207 kcal/mol
- Entropy (ΔS) (OccJ WT [1]): 7.53 cal/mol/deg
- Free enthalpy (ΔG) (OccJ WT [1]): -6.322 kcal/mol
- Kd (OccJ WT [1]): 19.3 ± 1.4 µM
- Kd (NocT WT [3]): 21.3 ± 2.1 µM
- Kd (OccJ WT [7]; [14]): 4.63 ± 0.42 µM
- Enthalpy (ΔH) (NocT WT [2]): -1.195 kcal/mol
- Entropic contribution (-TΔS) (NocT WT [2]): -4.309 kcal/mol
- Entropy (ΔS) (NocT WT [2]): 14.7 cal/mol/deg
- Free enthalpy (ΔG) (NocT WT [2]): -5.504 kcal/mol
- Kd (NocT WT [2]): 79 ± 14 µM

Compound: NC(N)=NCCC[C@H](N[C@H](CCC(=O)O)C(=O)O)C(=O)O [nopaline]
- K D (F) (OccJ S91G [4]; 20 °C, pH 8.0): not a ligand
- K D (F) (NocT G97S [8]): abolished the nopaline binding ability
- Kd (NocT WT [5]): 3.7 ± 0.6 µM
- K D (F) (OccJ WT [7]; intrinsic protein fluorescence titration, 20 °C, 50 mM Tris-HCl pH 8.0, 150 mM NaCl, 1 µM protein): No fluorescence intensity change was detected; also recorded: no interaction

Compound: C[C@@H](N[C@@H](CCCN=C(N)N)C(=O)O)C(=O)O [octopine]
- Enthalpy (ΔH) (OccJ WT [1]): -4.837 kcal/mol
- Entropic contribution (-TΔS) (OccJ WT [1]): -5.98 kcal/mol
- Entropy (ΔS) (OccJ WT [1]): 20.4 cal/mol/deg
- Free enthalpy (ΔG) (OccJ WT [1]): -10.817 kcal/mol
- Kd (OccJ WT [1]): 0.009 µM
- fold lower affinity of OccJ-S91G than OccJ (OccJ S91G [4]): over 7,000 fold
- Kd (OccJ S91G [4]; 20 °C, pH 8.0, read-out: K D (F)): 29.9 ± 3.8 µM
- Kd (OccJ N202D [9]): 0.006 ± 0.001 µM
- Kd (NocT WT [10]): 9.9 µM
- K D (ITC) (LAO WT; ITC, 20 °C): No interaction; also recorded: cannot bind
- fold lower affinity of NocT G97S compared with the WT (NocT G97S [11]): 10 fold
- Kd (NocT G97S [8]; read-out: K D (F)): 63.8 ± 13.8 µM
- Kd (NocT WT [5]): 6.1 ± 0.7 µM
- Enthalpy (ΔH) (LAO Q122A; ITC, 20 °C): -3.318 kcal/mol
- Entropic contribution (-TΔS) (LAO Q122A; ITC, 20 °C): -2.673 kcal/mol
- Entropy (ΔS) (LAO Q122A; ITC, 20 °C): 9.12 cal/mol/deg
- Free enthalpy (ΔG) (LAO Q122A; ITC, 20 °C): -5.991 kcal/mol
- Kd (LAO Q122A; ITC, 20 °C, read-out: K D (ITC)): 34 ± 5 µM
- Enthalpy (ΔH) (OccJ N202D [6]): -4.12 kcal/mol
- Entropic contribution (-TΔS) (OccJ N202D [6]): -6.345 kcal/mol
- Entropy (ΔS) (OccJ N202D [6]): 21.5 cal/mol/deg
- Free enthalpy (ΔG) (OccJ N202D [6]): -10.465 kcal/mol
- Kd (OccJ N202D [6]): 0.016 µM
- Enthalpy (ΔH) (OccJ S91G [12]): -0.726 kcal/mol
- Entropic contribution (-TΔS) (OccJ S91G [12]): -5.569 kcal/mol
- Entropy (ΔS) (OccJ S91G [12]): 19 cal/mol/deg
- Free enthalpy (ΔG) (OccJ S91G [12]): -6.295 kcal/mol
- Kd (OccJ S91G [12]): 20 µM
- Kd (OccJ WT [7]; fluorescence titration, read-out: apparent dissociation constant K D): 0.004 ± 0.001 µM
- Kd (OccJ WT [7]; [14]): 0.004 ± 0.0001 µM
- Enthalpy (ΔH) (NocT G97S [13]): 0.687 kcal/mol
- Entropic contribution (-TΔS) (NocT G97S [13]): -6.42 kcal/mol
- Entropy (ΔS) (NocT G97S [13]): 21.9 cal/mol/deg
- Free enthalpy (ΔG) (NocT G97S [13]): -5.733 kcal/mol
- Kd (NocT G97S [13]): 52 µM
